The values that follow come from PubChem BioAssay (NCI).

Among the test systems are K-562 leukemia; COLO 205 colon; SR leukemia; 786-0 renal; UO-31 renal; U251 CNS; HCT-15 colon; MDA-MB-435; LOX IMVI melanoma; SF-295 CNS.
What all share (experiment): DTP human tumour cell line panel, 48 h

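48-hour exposure; five concentrations; linearly interpolated endpoints. GI50: concentration for 50% inhibition of growth. TGI: concentration producing complete growth inhibition.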

As for `O=C1c2c(c(=O)[nH]c3ccccc23)[C@H](c2ccccc2)[C@@H]2CCCN12`, the GI50 (usually the concentration that inhibits growth by half) in the test with K-562 leukemia is 5.63 µM; with COLO 205 colon, 14.6 µM; in the test on SR leukemia, 2.61 µM; in the test on 786-0 renal, 4.61 µM; in the test on UO-31 renal it was 2.1 µM; with U251 CNS, 3.37 µM. Moreover, the GI50 in the test on HCT-15 colon was 3.37 µM; in the test with MDA-MB-435 it was 3.7 µM; with LOX IMVI melanoma, 2.3 µM; with SF-295 CNS it was 8.72 µM. Moreover, the TGI (commonly the concentration at which net growth stops) with K-562 leukemia was > 100 µM; with COLO 205 colon, 44.5 µM; with SR leukemia it was 36.7 µM; in the test with 786-0 renal it was > 100 µM; with UO-31 renal, 7.05 µM; in the test with U251 CNS, 18.3 µM. In addition, the TGI in the test on HCT-15 colon was > 100 µM; in the test with MDA-MB-435, 15.2 µM; in the test with LOX IMVI melanoma, 11.8 µM; in the test with SF-295 CNS it was 47.8 µM.

As to `CCCc1nn(C)c2c(=O)[nH]c(-c3cc(S(=O)(=O)N4CCN(C)CC4)ccc3OCC)nc12`, the GI50 with K-562 leukemia, in the test with COLO 205 colon, with SR leukemia, in the test on 786-0 renal, in the test with UO-31 renal and with U251 CNS was > 100 µM in each case. The GI50 in the test on HCT-15 colon, in the test on MDA-MB-435, in the test with LOX IMVI melanoma and with SF-295 CNS was > 100 µM each time. The TGI with K-562 leukemia, in the test on COLO 205 colon, in the test on SR leukemia, with 786-0 renal, in the test with UO-31 renal and in the test with U251 CNS was > 100 µM each time. The TGI with HCT-15 colon, with MDA-MB-435, in the test with LOX IMVI melanoma and in the test with SF-295 CNS was > 100 µM each time.

Regarding `Cc1cc2c(F)c(Oc3ncnc(Nc4ccc(N5C[C@@H](C)N[C@@H](C)C5)cc4)c3C#N)cc(F)c2[nH]1`, the GI50 in the test with K-562 leukemia was 1.62 µM; with COLO 205 colon it was 1.68 µM; with SR leukemia, 1.63 µM; in the test with 786-0 renal it was 1.62 µM; in the test with UO-31 renal it was 1.1 µM; in the test with U251 CNS, 1.72 µM. Besides, the GI50 in the test on HCT-15 colon was 1.73 µM; in the test on MDA-MB-435, 2.03 µM; in the test on LOX IMVI melanoma, 1.6 µM; in the test with SF-295 CNS, 1.95 µM. For the same molecule, the TGI came to 3.83 µM in the test on K-562 leukemia; 3.58 µM with COLO 205 colon; 4.35 µM with SR leukemia; 3.64 µM in the test with 786-0 renal; 3.39 µM with UO-31 renal; 4.47 µM in the test on U251 CNS. Further, the TGI is 4.24 µM in the test on HCT-15 colon, 4.61 µM with MDA-MB-435, 3.08 µM in the test with LOX IMVI melanoma and 3.94 µM in the test with SF-295 CNS.

Turning to `CN1C(=O)CCC(N2C(=O)c3cccc(NCCOCCOCCNC(=O)c4cc5c(o4)C(=O)c4ccccc4C5=O)c3C2=O)C1=O` (stereo not given), the GI50 was 2.13 µM with K-562 leukemia; 2.06 µM in the test with COLO 205 colon; 1.99 µM in the test with SR leukemia; 2.27 µM in the test with 786-0 renal; 1.59 µM in the test on UO-31 renal; 2.4 µM with U251 CNS. The GI50 in the test with HCT-15 colon is 1.77 µM; in the test on MDA-MB-435, 1.05 µM; with LOX IMVI melanoma it was 1.11 µM; with SF-295 CNS, 1.66 µM. In addition, the TGI with K-562 leukemia was 6.52 µM; with COLO 205 colon, 4.04 µM; with SR leukemia it was 7.5 µM; with 786-0 renal it was 5.64 µM; in the test on UO-31 renal it was 3.31 µM; in the test with U251 CNS, 6.1 µM. Besides, the TGI in the test on HCT-15 colon was determined as 3.83 µM; with MDA-MB-435, 2.28 µM; in the test on LOX IMVI melanoma, 3 µM; with SF-295 CNS, 3.08 µM.

For the molecule `O=C1C2CCN(CC2)C1CN1CCOCC1` (stereo not given), the TGI was 20.3 µM in the test with K-562 leukemia; 3.27 µM in the test on COLO 205 colon; 35.5 µM with SR leukemia; 3.55 µM in the test on 786-0 renal; 7.14 µM in the test on UO-31 renal; 26.2 µM with U251 CNS. Moreover, the TGI was 4.94 µM in the test on HCT-15 colon, > 100 µM with MDA-MB-435, 12.1 µM in the test with LOX IMVI melanoma and 33.9 µM in the test on SF-295 CNS.

Turning to `CN(C)c1ccc(/C=N/NC(N)=S)nc1`, the GI50 with K-562 leukemia is 4.54 µM; in the test with COLO 205 colon, 4.27 µM; in the test with SR leukemia, 2.73 µM; with 786-0 renal, 3.33 µM; with UO-31 renal, 2.34 µM; with U251 CNS, 3.99 µM. Also, the GI50 with HCT-15 colon is 4.11 µM; with MDA-MB-435, 4.01 µM; in the test on LOX IMVI melanoma, 2.71 µM; with SF-295 CNS it was 2.91 µM. Besides, the TGI with K-562 leukemia is > 100 µM; in the test on COLO 205 colon it was > 100 µM; in the test on SR leukemia it was > 100 µM; in the test on 786-0 renal, 9.68 µM; in the test with UO-31 renal, 7.46 µM; in the test with U251 CNS, > 100 µM. Besides, the TGI with HCT-15 colon is > 100 µM; in the test on MDA-MB-435 it was > 100 µM; with LOX IMVI melanoma it was > 100 µM; in the test with SF-295 CNS, 16.1 µM.

For the molecule `O=S(=O)(N=C1C(Cl)=C(Cl)C(=NS(=O)(=O)c2ccccc2)C(Cl)=C1Cl)c1ccccc1`, the GI50 with K-562 leukemia is 21.4 µM; in the test on COLO 205 colon it was 23.9 µM; in the test with SR leukemia, 12.7 µM; in the test on 786-0 renal, 22.7 µM; with UO-31 renal it was 18.8 µM; with U251 CNS, 19.3 µM. Besides, the GI50 with HCT-15 colon was 24.5 µM; in the test on MDA-MB-435, 20.1 µM; in the test on LOX IMVI melanoma it was 15.4 µM; in the test with SF-295 CNS, 29.5 µM. Further, the TGI is > 100 µM in the test with K-562 leukemia; 88.8 µM with COLO 205 colon; > 100 µM in the test with SR leukemia; 44.1 µM in the test on 786-0 renal; 48.9 µM in the test with UO-31 renal; 54 µM with U251 CNS. In addition, the TGI was > 100 µM in the test with HCT-15 colon, 68.3 µM in the test with MDA-MB-435, 43.1 µM in the test on LOX IMVI melanoma and 93.8 µM with SF-295 CNS.

On to `COc1ccc(-c2ncnc3c2ncn3CC#CCCl)cc1`, for which the GI50 is 8.06 µM in the test with K-562 leukemia; 3.51 µM in the test with COLO 205 colon; 5.24 µM in the test on SR leukemia; 1.86 µM in the test on 786-0 renal; 2.43 µM with UO-31 renal; 1.96 µM in the test with U251 CNS. In addition, the GI50 in the test with HCT-15 colon was 4.07 µM; in the test with MDA-MB-435 it was 2.71 µM; in the test on LOX IMVI melanoma, 1.77 µM; in the test with SF-295 CNS, 2.35 µM. Further, the TGI in the test with K-562 leukemia was > 100 µM; with COLO 205 colon, 13.7 µM; with SR leukemia it was > 100 µM; in the test with 786-0 renal, 3.93 µM; in the test with UO-31 renal, 15.3 µM; with U251 CNS it was 4.85 µM. Besides, the TGI with HCT-15 colon was 17.7 µM; in the test with MDA-MB-435, 11.5 µM; with LOX IMVI melanoma, 3.52 µM; with SF-295 CNS it was 7.15 µM.
